The nature of data set [1]: Kinetic solubility (turbidimetric method). Particulars: aqueous buffer, kinetic from dmso stock, PBS buffer pH 7.4, 2 hours at 37° C., read-out: Kin. solubility. The data set is classed as physicochemical.
The nature of data set [2]: Fluorescence-enabled inhibited autoxidation (FENIX) assay. The data set is classed as biochemical. The conditions noted are these: RTA 2 μM, liposomes 1 mM; for Logkinh: FENIX assay; for kinh (10^4 M^−1s^−1) ± SD: inhibition rate constant, STY-BODIPY 1 μM, DTUN initiator, 37° C. As for the experimental part: Unless otherwise stated, laboratory reagent grade solvents were used. Reagents were obtained from various commercial sources and were used without any prior purification. L-α-phosphatidylcholine (Egg, Chicken), powder was purchased from Merck Life Science B.V.. DTUN and STY-BODIPY were synthesized according to methods described in Shah et al. (2019) Cell Chem. Biol. 26, 1594-1607. Fluorescence was measured using the UV/vis spectrophotometer Synergy MX, Biotek with Gen5.
In order to quantify radical trapping antioxidant activity in phospholipid bilayers to a clear bottom black-walled 96-well plate for fluorescence-base assays (Invitrogen by Thermo Fisher Scientific) was added 250 μL of a solution containing liposomes (1 mM), styrene-conjugated BODIPY (STY-BODIPY, 1 μM), and the respective radical trapping antioxidant (RTA, 2 μM). The solutions were made in larger volumes in Eppendorfs, pre-mixed and 250 μL aliquot was transferred to each well. The plate was incubated for 10 minutes at 37° C. in the BioTek SynergyMx plate reader, followed by a fast-mixing protocol for 5 minutes. The plate was ejected from the plate reader and autoxidation was initiated by the addition of a 50 μL aliquot of (E)-1,2-bis((2-methyldecan-2-yl)oxy)diazene (DTUN, 0.2 mM in EtOH/PBS 3/47, v/v), followed by another mixing protocol for 5 minutes. Data were acquired by excitation probes at 488 nm and emission was measured at 518 nm (read intervals 1.0 min). Kinetic read parameters: (i) optic position: bottom, (ii) gain: 80, (iii) bandwidth: 9.0. The results of the FENIX assay are presented in Table 2 as inhibition rate constants (kinh), logkinh and stoichiometries (n) of tested compounds.

Converted amounts (≈) assume the structure as drawn. Structures can show the parent of a compound that is named as a salt.

For `O=Cc1ccc2c(c1)Sc1ccccc1N2` [CPD-037, 10H-phenothiazine-3-carbaldehyde], the solubility at 2 h in data set [1] was 12.5 to 50 µM (≈ 2.84 to 11.4 µg/mL).
For the compound `Nc1cc(C(=O)NCCN2CCNCC2)cc2c1Nc1ccccc1S2` [CPD-010, 1-Amino-N-(2-(piperazin-1-yl)ethyl)-10H-phenothiazine-3-carboxamide tetrahydrochloride], in data set [2], the Logkinh is 1.80 ± 0.08 and the “kinh (10^4 M^−1s^−1) ± SD” value is 12.86 ± 0.90 10^4 M^−1s^−1.
The corresponding values for `NCCNC(=O)c1cc(NCc2cc(F)cc(F)c2)c2c(c1)Sc1ccccc1N2` [CPD-024, N-(2-aminoethyl)-1-((3,5-difluorobenzyl)amino)-10H-phenothiazine-3-carboxamide trihydrochloride] are 1.95 ± 0.33 and 3.41 ± 0.21 10^4 M^−1s^−1.
The corresponding values for `O=C(c1cc(NCc2ccccc2)c2c(c1)Sc1ccccc1N2)N1CCOCC1` [CPD-011, (1-(Benzylamino)-10H-phenothiazin-3-yl)(morpholino)methanone] are 1.77 ± 0.07 and 1.77 ± 0.22 10^4 M^−1s^−1.
For `CNCCNC(=O)c1cc(NCc2ccccc2)c2c(c1)Sc1ccccc1N2` [CPD-017, 1-(Benzylamino)-N-(2-(methylamino)ethyl)-10H-phenothiazine-3-carboxamide trihydrochloride] the same measures were 2.03 ± 0.02 and 2.27 ± 0.03 10^4 M^−1s^−1.
On to `O=C(NCCN1CCOCC1)c1ccc2c(c1)Sc1ccccc1N2` [CPD-032, N-(2-morpholinoethyl)-10H-phenothiazine-3-carboxamide], for which, in data set [2], the Logkinh was 2.29 ± 0.11 and the “kinh (10^4 M^−1s^−1) ± SD” value is 1.14 ± 0.01 10^4 M^−1s^−1.
The corresponding values for `O=C(c1ccc2c(c1)Sc1ccccc1N2)N1CCNCC1` [CPD-035, (10H-phenothiazin-3-yl)(piperazin-1-yl)methanone dihydrochloride] are 2.51 ± 0.05 and 1.26 ± 0.04 10^4 M^−1s^−1.
The corresponding values for `O=C(NCCN1CCNCC1)c1ccc2c(c1)Sc1ccccc1N2` [CPD-036, N-(2-(piperazin-1-yl)ethyl)-10H-phenothiazine-3-carboxamide trihydrochloride] are 2.30 ± 0.09 and 1.24 ± 0.04 10^4 M^−1s^−1.

For orientation: solubility means the dissolved amount per volume that the medium holds.
